Source: patent US7511284B2, “Photostabilisation of fluorescent dyes” (International University Bremen GmbH, priority 2004, dated 2009)
Marks after values point to notes of the source that are not given here.

Key:
[1] = Fluorescence quantum yield and brightness with and without CB7; assay type: physicochemical; design: ε × φf (brightness): unit not given beside the values
[2] = Absorption and fluorescence maxima with and without CB7; assay type: physicochemical; design: unit not given here
Excerpt: Addition of cucurbiturils leads to the formation of complexes with fluorescent dyes, which have changed photophysical properties, see examples in Table 3.

[3] = Decrease of fluorescence intensity of dye solutions stored in daylight (ambient light); assay type: physicochemical; conditions: for Stabilisation factor: with 1 mM CB7, daylight; for fluorescence intensity after exposure to daylight: 300 hours
Method: As an alternative, the decrease in the fluorescence intensity of the above-described solutions was determined by observing their fluorescence (Cary Eclipse Fluorometer, Varian) when the solutions were stored in daylight (ambient light). The fluorescence intensity remained unchanged over the observation period for the solution containing cucurbituril, whereas it felt markedly for the cucurbituril-free solution (FIG. 3), with approximate half-lives of about 80 to 390 hours, depending on the sample vessel.

[4] = Photobleaching of aqueous dye solution under 532-nm Nd-YAG laser irradiation, monitored by UV-Vis absorption
Method: The addition of cucurbituril (mixture of a plurality of cucurbiturils, wherein cucurbit[7]uril (formula (D), also known as CB7) was the predominant species according to mass spectrometry, with cucurbit[5]uril as a detectable impurity), concentration of cucurbit[7]uril 1-2 mM, mixture prepared as described in C. […] The photostabilisation of the fluorescent dye stabilised by cucurbituril (CB7) was monitored by the characteristic visible absorption band with a Varian Cary 50 UV-VIS spectrophotometer, based on a cucurbituril-free, optically adapted (at 532 nm) solution of the fluorescent dye. The UV-Vis spectra were recorded at different irradiation times (FIG. 1), and the decreasing absorption (A) at 532 nm was plotted against the pertinent function log([10^A0−1]/[10^A−1]). […] The concentrations with and without cucurbit[7]uril are not identical, but were so chosen that the absorbance at 532 nm was identical at the start of irradiation. The concentration of rhodamine 6G was lower in samples containing cucurbit[7]uril than in samples without cucurbit[7]uril owing to a higher extinction coefficient.
The quantum yield of the photobleaching was determined by means of the initial linear region of the graph (FIG. 2) of the ratio of the gradients S(D)/S(D+CB7)=εDφb(D)/[εD+CB7φb(D+CB7)], wherein εD+CB7 and εD are the extinction coefficient of the dye (D) with and without CB7 at the irradiation wavelength of 532 nm.
The chosen stabilisation factor was the ratio of the quantum yields of the photobleaching in the absence and presence of CB7.

[5] = Photostabilisation of fluorescent dyes by cucurbiturils (preliminary tests, tests carried out hitherto); conditions: for photostabilisation by the use of a cucurbituril: in particular cucurbit[7]uril; for photostabilisation of conventional fluorescent dyes by the cucurbituril: preliminary tests, in particular xanthene and cyanine fluorescent dyes
[6] = Decrease in photon count rate in fluorescence correlation spectroscopy (FCS) on a confocal microscope; assay type: physicochemical; conditions: for relative photon count rate: irradiation for 2000 seconds; for count rate present: after 30 minutes irradiation, 10 nM dye
Method: Aqueous solutions of fluorescent dyes (10 nM) with and without cucurbit[7]uril (1 mM) were also studied by fluorescence correlation spectroscopy (FCS) on a confocal microscope (Carl Zeiss LSM 510 Confocor 2), which is used for several applications relevant for biology, biochemistry and spectroscopy. 400 μl of each solution were transferred to an 8-chamber cover glass system and irradiated with the light of a CW laser. The decrease in the count rate, which is directly proportional to the mean fluorescence intensity of the sample, was measured against the irradiation time. […] Considerable photostabilisation can again be seen, because without cucurbit[7]uril less than 30%, but with cucurbit[7]uril still more than 90% of the count rate is present after 30 minutes. The observed photostabilisation factors are contained in Table 2 (footnotes b, c, d).
The photon count rate in samples containing cucurbit[7]uril fell during irradiation for 2000 seconds only to about 95%, while the […] of the cucurbit[7]uril-free sample fell to about 25% of the initial value in the same time.

| photostabilisation by the use of a cucurbituril [5] | Compound | ε × φf (brightness) ([1]; with 1 mM CB7) | φf ([1]; with 1 mM CB7) | ε × φf (brightness) ([1]; without CB7) | φf ([1]; without CB7) | λabs max ([2]; with 1 mM CB7) | λem max ([2]; with 1 mM CB7) | λabs max ([2]; without CB7) | λem max ([2]; without CB7) | other results |
| --- | --- | --- | --- | --- | --- | --- | --- | --- | --- | --- |
|  | Cc1cc(=O)oc2c3c4c(cc12)CCCN4CCC3 [Coumarin-102, coumarin 102] | 17807 | 0.754 | 14388 | 0.66 | 404.6 | 476.0 | 392.6 | 489.0 | absorbance (extinction coefficient) and fluorescence quantum yield (intensity) in a complex with cucurbituril versus without [1]: greater |
|  | CCN1C(=CC=CC2=[N+](CC)c3ccc(S(=O)(=O)[O-])cc3C2(C)C)C(C)(C)c2cc(S(=O)(=O)O)ccc21 [Cyanine 3, cyanine 3] | 11502 | 0.108 | 18000 | 0.15 | 558.6 | 571.0 | 544.6 | 560.0 |  |
|  | CCN1C(=CC=CC=CC2=[N+](CC)c3ccc(S(=O)(=O)[O-])cc3C2(C)C)C(C)(C)c2cc(S(=O)(=O)O)ccc21 [Cyanine 5, cyanine 5] | 51000 | 0.456 | 37260 | 0.27 | 642.2 | 657.0 | 642.0 | 660.0 | absorbance (extinction coefficient) and fluorescence quantum yield (intensity) in a complex with cucurbituril versus without [1]: greater |
| Particularly good photostabilisation | CCN=c1cc2oc3cc(NCC)c(C)cc3c(-c3ccccc3C(=O)OCC)c-2cc1C.Cl [Rhodamine 6G, rhodamine 6G] | 81594 | 0.883 | 71218 | 0.89 | 534.6 | 555.0 | 526.0 | 552.0 | Stabilisation factor ([3]; quartz cuvette): >500*; Stabilisation factor ([3]; screw-top glass bottle): >5000*; fluorescence intensity after exposure to daylight ([3]; with cucurbit[7]uril in glass bottles): hardly decreases at all; fluorescence intensity after exposure to daylight ([3]; without cucurbit[7]uril, glass bottle): 60 % of the original value; fluorescence intensity after exposure to daylight ([3]; without cucurbit[7]uril, quartz cuvettes): 90 % of the original value; Stabilisation factor ([4]; 1 mM CB7, 3 μM dye solutions, 532-nm laser light (1.3 W, 10 Hz) of a Nd-YAG laser): 30.0^a; Stabilisation factor ([4]; with 1 mM CB7, high laser power (2.1 W), 532 nm): 7.5*; Stabilisation factor ([4]; with 1 mM CB7, low laser power (1.3 W), 532 nm): 30*; number of absorption cycles before a molecule decomposes ([4]; with addition of cucurbit[7]uril (CB7 solution)): 22 million; number of absorption cycles before a molecule decomposes ([4]; without cucurbit[7]uril): 0.8 million |
| Particularly good photostabilisation | Cc1c(C)c2cc3c4c(c2oc1=O)CCCN4CCC3 [coumarin 39] |  |  |  |  |  |  |  |  |  |
|  | O=C1N2CN3C(=O)N4CN5C(=O)N6CN7C(=O)N8CN9C(=O)N%10CN1C1C2N2CN%11C(=O)N(CN%12C(=O)N(CN%13C(=O)N(CN%14C(=O)N(CN1C2=O)C%10C%149)[C@H]8[C@H]7%13)[C@H]6[C@H]5%12)C4C3%11 (some centres unmarked) [cucurbit[5]uril] |  |  |  |  |  |  |  |  | photostabilisation of conventional fluorescent dyes by the cucurbituril [5]: best photostabilisation |
|  | O=C1N2CN3C(=O)N4CN5C(=O)N6CN7C(=O)N8CN9C(=O)N%10CN%11C(=O)N%12CN1C1C2N2CN%13C(=O)N(CN%14C(=O)N(CN%15C(=O)N(CN%16C(=O)N(CN%17C(=O)N(CN1C2=O)C%12C%11%17)C%10C9%16)C8C7%15)C6C5%14)C4C3%13 (centres unmarked) [cucurbit[6]uril] |  |  |  |  |  |  |  |  | photostabilisation of conventional fluorescent dyes by the cucurbituril [5]: best photostabilisation |
|  | O=C1N2CN3C(=O)N4CN5C(=O)N6CN7C(=O)N8CN9C(=O)N%10CN%11C(=O)N%12CN%13C(=O)N%14CN%15C(=O)N%16CN1C1C2N2CN%17C(=O)N(CN%18C(=O)N(CN%19C(=O)N(CN%20C(=O)N(CN%21C(=O)N(CN%22C(=O)N(CN%23C(=O)N(CN1C2=O)C%16C%15%23)C%14C%13%22)C%12C%11%21)C%10C9%20)C8C7%19)C6C5%18)C4C3%17 (centres unmarked) [cucurbit[8]uril] |  |  |  |  |  |  |  |  | photostabilisation of conventional fluorescent dyes by the cucurbituril [5]: best photostabilisation |
|  | O=C1OC2(c3ccc(O)cc3Oc3cc(O)ccc32)c2ccccc21 [fluorescein] |  |  |  |  |  |  |  |  | improvement in photostability by cucurbiturils according to formulae (B) to (E) ([5]; anionic fluorescent dye): only a slight or no improvement |
| Particularly good photostabilisation | rhodamine 123 | 24097 | 0.362 | 57470 | 0.83 | 502.6 | 532.0 | 500.0 | 525.0 | number of absorption cycles before a molecule decomposes ([4]; without cucurbit[7]uril): 1.6 million |

| Compound | photostabilisation by the use of a cucurbituril [5] | ε × φf (brightness) ([1]; with 1 mM CB7) | φf ([1]; with 1 mM CB7) | ε × φf (brightness) ([1]; without CB7) | φf ([1]; without CB7) | λabs max ([2]; with 1 mM CB7) | λem max ([2]; with 1 mM CB7) | λabs max ([2]; without CB7) | λem max ([2]; without CB7) | other results |
| --- | --- | --- | --- | --- | --- | --- | --- | --- | --- | --- |
| CN(C)c1ccc2c(-c3ccccc3C(=O)[O-])c3ccc(N(C)C)cc3[o+]c2c1 [Tetramethylrhodamine, tetramethylrhodamine] | Particularly good photostabilisation | 20277 | 0.271 | 17553 | 0.20 | 558.6 | 582.0 | 552.6 | 577.0 | Stabilisation factor ([6]; 1 mM CB7, 10 nM dye solutions, 514-nm laser light (30 mW, cw), FCS, after 35 minutes, via photon count rate): 4.3^b; relative photon count rate ([6]; cucurbit[7]uril-free sample): about 25 % of the initial value; count rate present ([6]; with cucurbit[7]uril (1 mM)): more than 90%; relative photon count rate ([6]; with cucurbit[7]uril): about 95 % of the initial value; count rate present ([6]; without cucurbit[7]uril): less than 30% |
